Assay results: publication PMC9250534, “Synthesis and direct assay of large macrocycle diversities by combinatorial late-stage modification at picomole scale” (Nature Communications, 2022)
Numbered stars: 1 amine (or outer) side, 2 acyl side, 3 side chain; on linkers, the order of the positions; unused ones are H or OH. Bridge positions count the residues as written; N and C are the ends. Square brackets hold non-standard residues; d marks the D form. Peptide text beside a SMILES is read from it. * marks the point of attachment. ξ: configuration not given here. ξPro(4-NHCO(5-Cl-2-thienyl)) = O=C(NC1CNC(C(=O)O)C1)c1ccc(Cl)s1; ξPro(4ξ-NHCOC6H4-4-Cl) = O=C(NC1CNC(C(=O)O)C1)c1ccc(Cl)cc1; 2Thenoyl(5-Cl) = O=C(c1ccc(Cl)s1)*; Benzoyl(4-Cl) = O=C(c1ccc(Cl)cc1)*; Cysteamide = C(CS[*:3])N[*:1]; X1 = O=C(/C=C/c1ccccc1)*; Api = NC1(C(=O)O)CCNCC1; Dap = NC[CH](N)C(=O)O; X2 = O=C(C=Cc1ccccc1)*; Mpa = O=C(O)CCS

Target: MDM2 (Homo sapiens, UniProt Q00987)
Sequence (Q00987 whole entry): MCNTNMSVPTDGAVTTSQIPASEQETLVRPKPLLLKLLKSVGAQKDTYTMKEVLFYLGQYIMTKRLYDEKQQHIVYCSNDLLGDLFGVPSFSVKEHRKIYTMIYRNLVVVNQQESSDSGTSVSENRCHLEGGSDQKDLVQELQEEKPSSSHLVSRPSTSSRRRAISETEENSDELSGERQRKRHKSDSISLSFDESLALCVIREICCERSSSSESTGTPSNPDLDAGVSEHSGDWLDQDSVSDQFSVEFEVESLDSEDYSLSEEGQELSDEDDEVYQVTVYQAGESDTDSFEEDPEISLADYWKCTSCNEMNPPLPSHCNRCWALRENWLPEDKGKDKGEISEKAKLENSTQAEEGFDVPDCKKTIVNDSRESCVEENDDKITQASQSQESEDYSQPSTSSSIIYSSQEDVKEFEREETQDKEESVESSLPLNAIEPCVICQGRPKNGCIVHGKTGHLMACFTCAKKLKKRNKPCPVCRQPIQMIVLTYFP
Assay: MDM2 binding screen: displacement of fluorescent p53 peptide probe FP53 (fluorescence polarization)
Settings: crude macrocycle reactions; for fraction fluorescent probe displaced, Screen: initial screen
Experimental: We screened Library 2 in 384-microwell plates by dispensing the target protein MDM2 and reporter peptide into the wells containing the macrocycle reactions.
The products were screened for displacement of a p53-based fluorescent peptide from human MDM2. Final macrocycle concentrations were 10 µM. For each macrocycle, the MDM2 binding was measured once.
One fluorescence anisotropy reading was taken with a Tecan Infinite F200 Pro fluorescence plate reader (excitation at 485 nm, emission at 535 nm) at 25 °C. Data was collected and exported using the Tecan Infinite M200 Pro instrument software. The data was analyzed by Excel (version 2016).

## O=C(NC[C@@H]1NC(=O)[C@H](Cc2ccccc2)NC(=O)[C@@H]2CCCN2C(=O)CCSSCCNC1=O)c1ccc(Cl)cc1 [X B1 F D3 Acid 25] ([Mpa]PF[Dap](Benzoyl(4-Cl))-Cysteamide; disulfide 1-C)
Acid 25
  fraction fluorescent probe displaced, Screen: 0.09
  fraction fluorescent probe displaced, Replicate: 0.20

## O=C(NC1CC2C(=O)NCCSSCCC(=O)N3CCCC3C(=O)NC(Cc3ccccc3)C(=O)N2C1)c1ccc(Cl)s1 (stereo not shown) [X B1 F D5 Acid 14] ([Mpa]PF[ξPro(4-NHCO(5-Cl-2-thienyl))]-Cysteamide; disulfide 1-C; configuration not given here)
Acid 14
  fraction fluorescent probe displaced, Screen: 0.11
  fraction fluorescent probe displaced, Replicate: 0.07

## O=C1NC2(CCN(C(=O)c3ccc(Cl)s3)CC2)C(=O)NCCSSCCC(=O)N2CCCC2C(=O)NC1Cc1ccccc1 (stereo not shown) [X B1 F D6 Acid 14] ([Mpa]PF[Api](2Thenoyl(5-Cl))-Cysteamide; disulfide 1-C; configuration not given here)
Acid 14
  fraction fluorescent probe displaced, Screen: 0.08
  fraction fluorescent probe displaced, Replicate: 0.07

## O=C1NC2(CCN(C(=O)c3ccc(Cl)cc3)CC2)C(=O)NCCSSCCC(=O)N2CCC[C@H]2C(=O)N[C@H]1Cc1ccccc1 [X B1 F D6 Acid 25] ([Mpa]PF[Api](Benzoyl(4-Cl))-Cysteamide; disulfide 1-C)
Acid 25
  fraction fluorescent probe displaced, Screen: 0.09
  fraction fluorescent probe displaced, Replicate: 0.15

## O=C1NC2(CCN(C(=O)C=Cc3ccccc3)CC2)C(=O)NCCSSCCC(=O)N2CCCC2C(=O)NC1Cc1ccccc1 (stereo not shown) [X B1 F D6 Acid 91] ([Mpa]PF[Api](X2)-Cysteamide; disulfide 1-C; configuration not given here)
Acid 91
  fraction fluorescent probe displaced, Screen: 0.00268
  fraction fluorescent probe displaced, Replicate: 0.04

## O=C1NC(Cc2ccccc2)C(=O)N2CCN(C(=O)c3ccc(Cl)s3)CC2C(=O)NCCSSCCC(=O)N2CCCC12 (stereo not shown) [X B1 F D7 Acid 14]
Acid 14
  fraction fluorescent probe displaced, Screen: 0.053
  fraction fluorescent probe displaced, Replicate: 0.12

## O=C1NC(Cc2ccccc2)C(=O)N2CCN(C(=O)c3ccc(Cl)cc3)CC2C(=O)NCCSSCCC(=O)N2CCCC12 (stereo not shown) [X B1 F D7 Acid 25]
Acid 25
  fraction fluorescent probe displaced, Screen: 0.0244
  fraction fluorescent probe displaced, Replicate: 0.12

## O=C(NCC1NC(=O)C(Cc2c[nH]c3ccccc23)NC(=O)C2CCCN2C(=O)CCSSCCNC1=O)c1ccc(Cl)s1 (stereo not shown) [X B1 W D3 Acid 14] ([Mpa]PW[Dap](2Thenoyl(5-Cl))-Cysteamide; disulfide 1-C; configuration not given here)
Acid 14
  fraction fluorescent probe displaced, Screen: 0.23
  fraction fluorescent probe displaced, Replicate: 0.15

## O=C(NC[C@@H]1NC(=O)[C@H](Cc2c[nH]c3ccccc23)NC(=O)[C@@H]2CCCN2C(=O)CCSSCCNC1=O)c1ccc(Cl)cc1 [X B1 W D3 Acid 25] ([Mpa]PW[Dap](Benzoyl(4-Cl))-Cysteamide; disulfide 1-C)
Acid 25
  fraction fluorescent probe displaced, Screen: 0.25
  fraction fluorescent probe displaced, Replicate: 0.25

## O=C(/C=C/c1ccccc1)NC[C@@H]1NC(=O)[C@H](Cc2c[nH]c3ccccc23)NC(=O)[C@@H]2CCCN2C(=O)CCSSCCNC1=O [X B1 W D3 Acid 91] ([Mpa]PW[Dap](X1)-Cysteamide; disulfide 1-C)
Acid 91
  fraction fluorescent probe displaced, Screen: 0.08
  fraction fluorescent probe displaced, Replicate: 0.04

## O=C(NC1CC2C(=O)NCCSSCCC(=O)N3CCCC3C(=O)NC(Cc3c[nH]c4ccccc34)C(=O)N2C1)c1ccc(Cl)cc1 (stereo not shown) [X B1 W D5 Acid 25] ([Mpa]PW[ξPro(4ξ-NHCOC6H4-4-Cl)]-Cysteamide; disulfide 1-C; configuration not given here)
Acid 25
  fraction fluorescent probe displaced, Screen: 0.15
  fraction fluorescent probe displaced, Replicate: 0.20

## O=C1NC2(CCN(C(=O)c3ccc(Cl)s3)CC2)C(=O)NCCSSCCC(=O)N2CCC[C@H]2C(=O)N[C@H]1Cc1c[nH]c2ccccc12 [X B1 W D6 Acid 14] ([Mpa]PW[Api](2Thenoyl(5-Cl))-Cysteamide; disulfide 1-C)
Acid 14
  fraction fluorescent probe displaced, Screen: 0.20
  fraction fluorescent probe displaced, Replicate: 0.12

## O=C1NC2(CCN(C(=O)/C=C/c3ccccc3)CC2)C(=O)NCCSSCCC(=O)N2CCC[C@H]2C(=O)N[C@H]1Cc1c[nH]c2ccccc12 [X B1 W D6 Acid 91] ([Mpa]PW[Api](X1)-Cysteamide; disulfide 1-C)
Acid 91
  fraction fluorescent probe displaced, Screen: 0.14
  fraction fluorescent probe displaced, Replicate: 0.07

## O=C1NC(Cc2c[nH]c3ccccc23)C(=O)N2CCN(C(=O)c3ccc(Cl)s3)CC2C(=O)NCCSSCCC(=O)N2CCCC12 (stereo not shown) [X B1 W D7 Acid 14]
Acid 14
  fraction fluorescent probe displaced, Screen: 0.08
  fraction fluorescent probe displaced, Replicate: 0.15

## O=C1CCSSCCNC(=O)[C@H](Cc2ccccc2)NC(=O)[C@H](CNC(=O)c2ccc(Cl)s2)NC(=O)CCN1 [X B2 D3 F Acid 14]
Acid 14
  fraction fluorescent probe displaced, Screen: -0.00483
  fraction fluorescent probe displaced, Replicate: 0.0465

## O=C1CCSSCCNC(=O)[C@H](Cc2ccccc2)NC(=O)[C@H](CNC(=O)c2ccc(Cl)cc2)NC(=O)CCN1 [X B2 D3 F Acid 25]
Acid 25
  fraction fluorescent probe displaced, Screen: 0.0244
  fraction fluorescent probe displaced, Replicate: -0.0552

## O=C(/C=C/c1ccccc1)NC[C@@H]1NC(=O)CCNC(=O)CCSSCCNC(=O)[C@H](Cc2ccccc2)NC1=O [X B2 D3 F Acid 91]
Acid 91
  fraction fluorescent probe displaced, Screen: 0.0563
  fraction fluorescent probe displaced, Replicate: -0.00827

## O=C1CCSSCCNC(=O)[C@H](Cc2c[nH]c3ccccc23)NC(=O)[C@H](CNC(=O)c2ccc(Cl)cc2)NC(=O)CCN1 [X B2 D3 W Acid 25]
Acid 25
  fraction fluorescent probe displaced, Screen: 0.19
  fraction fluorescent probe displaced, Replicate: 0.22

## O=C(/C=C/c1ccccc1)NC[C@@H]1NC(=O)CCNC(=O)CCSSCCNC(=O)[C@H](Cc2c[nH]c3ccccc23)NC1=O [X B2 D3 W Acid 91]
Acid 91
  fraction fluorescent probe displaced, Screen: 0.27
  fraction fluorescent probe displaced, Replicate: 0.14

## O=C1CCSSCCNC(=O)[C@H](Cc2ccccc2)NC(=O)[C@@H]2C[C@H](NC(=O)c3ccc(Cl)s3)CN2C(=O)CCN1 [X B2 D5 F Acid 14]
Acid 14
  fraction fluorescent probe displaced, Screen: 0.16
  fraction fluorescent probe displaced, Replicate: 0.05

## O=C1CCSSCCNC(=O)C(Cc2ccccc2)NC(=O)C2CC(NC(=O)c3ccc(Cl)cc3)CN2C(=O)CCN1 (stereo not shown) [X B2 D5 F Acid 25]
Acid 25
  fraction fluorescent probe displaced, Screen: 0.16
  fraction fluorescent probe displaced, Replicate: 0.05

## O=C(C=Cc1ccccc1)NC1CC2C(=O)NC(Cc3ccccc3)C(=O)NCCSSCCC(=O)NCCC(=O)N2C1 (stereo not shown) [X B2 D5 F Acid 91]
Acid 91
  fraction fluorescent probe displaced, Screen: -0.17
  fraction fluorescent probe displaced, Replicate: -0.08

## O=C1CCSSCCNC(=O)C(Cc2c[nH]c3ccccc23)NC(=O)C2CC(NC(=O)c3ccc(Cl)s3)CN2C(=O)CCN1 (stereo not shown) [X B2 D5 W Acid 14]
Acid 14
  fraction fluorescent probe displaced, Screen: 0.11
  fraction fluorescent probe displaced, Replicate: 0.17

## O=C(C=Cc1ccccc1)NC1CC2C(=O)NC(Cc3c[nH]c4ccccc34)C(=O)NCCSSCCC(=O)NCCC(=O)N2C1 (stereo not shown) [X B2 D5 W Acid 91]
Acid 91
  fraction fluorescent probe displaced, Screen: 0.03
  fraction fluorescent probe displaced, Replicate: 0.0168

## O=C1CCSSCCNC(=O)[C@H](Cc2ccccc2)NC(=O)C2(CCN(C(=O)c3ccc(Cl)s3)CC2)NC(=O)CCN1 [X B2 D6 F Acid 14]
Acid 14
  fraction fluorescent probe displaced, Screen: 0.13
  fraction fluorescent probe displaced, Replicate: 0.0229

## O=C1CCSSCCNC(=O)[C@H](Cc2c[nH]c3ccccc23)NC(=O)C2(CCN(C(=O)/C=C/c3ccccc3)CC2)NC(=O)CCN1 [X B2 D6 W Acid 91]
Acid 91
  fraction fluorescent probe displaced, Screen: 0.16
  fraction fluorescent probe displaced, Replicate: 0.07

## O=C1CCSSCCNC(=O)C(Cc2c[nH]c3ccccc23)NC(=O)C2CN(C(=O)c3ccc(Cl)s3)CCN2C(=O)CCN1 (stereo not shown) [X B2 D7 W Acid 14]
Acid 14
  fraction fluorescent probe displaced, Screen: 0.17
  fraction fluorescent probe displaced, Replicate: 0.07

## O=C1CCSSCCNC(=O)C(Cc2c[nH]c3ccccc23)NC(=O)C2CN(C(=O)C=Cc3ccccc3)CCN2C(=O)CCN1 (stereo not shown) [X B2 D7 W Acid 91]
Acid 91
  fraction fluorescent probe displaced, Screen: 0.14
  fraction fluorescent probe displaced, Replicate: 0.07

## O=C1CCSSCCNC(=O)[C@H](CNC(=O)c2ccc(Cl)s2)NC(=O)[C@H](Cc2ccccc2)NC(=O)CCN1 [X B2 F D3 Acid 14]
Acid 14
  fraction fluorescent probe displaced, Screen: 0.0241
  fraction fluorescent probe displaced, Replicate: 0.12

## O=C1CCSSCCNC(=O)[C@H](CNC(=O)c2ccc(Cl)cc2)NC(=O)[C@H](Cc2ccccc2)NC(=O)CCN1 [X B2 F D3 Acid 25]
Acid 25
  fraction fluorescent probe displaced, Screen: 0.0569
  fraction fluorescent probe displaced, Replicate: -0.03

## O=C(/C=C/c1ccccc1)NC[C@@H]1NC(=O)[C@H](Cc2ccccc2)NC(=O)CCNC(=O)CCSSCCNC1=O [X B2 F D3 Acid 91]
Acid 91
  fraction fluorescent probe displaced, Screen: 0.03
  fraction fluorescent probe displaced, Replicate: -0.11

## O=C1CCSSCCNC(=O)C2CC(NC(=O)c3ccc(Cl)s3)CN2C(=O)C(Cc2ccccc2)NC(=O)CCN1 (stereo not shown) [X B2 F D5 Acid 14]
Acid 14
  fraction fluorescent probe displaced, Screen: 0.14
  fraction fluorescent probe displaced, Replicate: 0.07
